Among the data in ChEMBL document CHEMBL2417463, “Synthesis and identification of new flavonoids targeting liver X receptor β involved pathway as potential facilitators of Aβ clearance with reduced lipid accumulation” (J Med Chem, 2013) are Activity values, retold here.

The experiment deals with Mus musculus. The experiment is described as follows: Antialzheimer activity in double transgenic B6C3 mouse overexpressing APP swedish mutant and PSEN1dE9 assessed as reduction of amyloid beta plaque load in brain at 10 mg/kg, ip administered 3 times per week measured after 6 weeks by thioflavin S staining-based fluorescence microscopic analysis relative to vehicle-treated control. The experiment is classed as functional, organism-based. On the set-up: dose 10 mg/kg.

The structures appear in SMILES notation. Active and inactive are the calls of the source. No cut-off for these calls is given here.

Take `Cc1ccc(/C=C/C(=O)c2ccc(N)cc2O)o1`: the outcome was Active.
